Results reported in patent US20230218632A1, “CYCLIC SULFONAMIDE DERIVATIVES AS TRAP1 MODULATORS AND USES THEREOF” (Amathus Therapeutics, Inc., priority 2020, published 2023).

Target: T1, TRAP1 enzyme (Homo sapiens, UniProt Q12931)
T1 sequence (Q12931 60-704): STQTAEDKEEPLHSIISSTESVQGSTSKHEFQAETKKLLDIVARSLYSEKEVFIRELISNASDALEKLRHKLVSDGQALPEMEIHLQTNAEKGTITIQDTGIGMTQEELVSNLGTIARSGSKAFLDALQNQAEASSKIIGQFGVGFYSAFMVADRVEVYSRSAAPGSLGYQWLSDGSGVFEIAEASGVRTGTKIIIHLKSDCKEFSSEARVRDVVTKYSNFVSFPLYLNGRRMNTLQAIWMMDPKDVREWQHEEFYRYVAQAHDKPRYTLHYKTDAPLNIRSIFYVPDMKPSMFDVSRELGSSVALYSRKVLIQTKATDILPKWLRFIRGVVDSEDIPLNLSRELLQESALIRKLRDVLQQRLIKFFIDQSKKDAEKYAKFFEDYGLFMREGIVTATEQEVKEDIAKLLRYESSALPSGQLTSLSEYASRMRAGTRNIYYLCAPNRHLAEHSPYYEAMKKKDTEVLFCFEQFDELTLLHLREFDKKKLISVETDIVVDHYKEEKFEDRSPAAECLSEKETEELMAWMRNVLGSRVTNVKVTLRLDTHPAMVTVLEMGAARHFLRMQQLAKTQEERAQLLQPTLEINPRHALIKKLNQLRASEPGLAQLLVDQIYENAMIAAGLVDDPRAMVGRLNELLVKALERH
Assay: ADP Glo assay (ATPase activity of TRAP1)
Type: biochemical
Settings: for EC50: 150 nM Trap1, 20 µM ATP, concentration for half maximal activation, read-out: ADP GLO DRC: GeoMean EC50; for Emax: read-out: ADP GLO DRC: Mean Emax
Protocol: Potency of test compounds to modulate the ATPase activity of TRAP1 enzyme was evaluated using ADP Glo assay. The assay is based on quantification of the ADP generated from ATP in the ATPase reaction. The assay is performed in two steps; first, after the ATPase reaction, an equal volume of ADP-Glo™ Reagent is added to terminate the ATPase reaction and deplete the remaining ATP. Second, the Kinase Detection Reagent is added to simultaneously convert ADP to ATP and allow the newly synthesized ATP to be measured using a luciferase/luciferin reaction.
All the assays were carried out in a 384-well Proxiplate. The buffer used was 25 mM Pipes pH-7.5, 40 mM KCl, 0.05 mM MgCl2, 0.025 % BSA, 0.316 mM EGTA, 0.003% Empigen, 0.01% Igepal. 150 nM Trap1 enzyme was incubated with various concentrations of the test compound (0.79 µM - 100 µM) at 37° C. for 30 mins (except in blank wells). 20 µM ATP was added to each well to start the reaction. The plate was spun for 1 min at 1200 rpm and then incubated at 37° C. for 60 mins. 5 µl of ADP Glo reagent was added to all the wells and spun the plate for 1 min at 1200 rpm and kept it on a shaker at ambient temperature for 60 mins. 10 µl of kinase detection mix was added to all the wells and the plate was read for Luminescence at 495 nm. The amount of ADP released was estimated from ATP/ADP standard curve generated at the same experimental conditions. Emax (Maximal percent activation) and EC50 (concentration for half maximal activation ) were estimated by fitting the dose response data to a sigmoidal curve fitting equation using Graphpad Prism software V. 8.

Row | SMILES | EC50 | Emax (maximal percent activation) | ADP GLO DRC: Mean Emax (maximal percent activation)
1 | O=C(Nc1ccc2c(c1)S(=O)(=O)N(c1ccc(C(F)(F)F)cc1)CCO2)c1ccccn1 [Compound 2197] | 30 to 100 µM | 129 to 149% | –
2 | O=C(Nc1ccc2c(c1)S(=O)(=O)N(c1ccc(C(F)(F)F)cc1)CCO2)c1ccncn1 [Compound 2175] | < 20 µM | 129 to 149% | –
3 | Cc1ncnc(C)c1C(=O)Nc1ccc2c(c1)S(=O)(=O)N(c1ccc(C(F)(F)F)cc1)CCO2 [Compound 2337] | 30 to 100 µM | 150 to 200% | –
4 | COc1cnccc1C(=O)Nc1ccc2c(c1)S(=O)(=O)N(c1ccc(C(F)(F)F)cc1)CCO2 [Compound 2209] | 20 to 30 µM | 129 to 149% | –
5 | Cc1ncoc1C(=O)Nc1ccc2c(c1)S(=O)(=O)N(c1ccc(C(F)(F)F)cc1)CCCO2 [Compound 1989, N-(1,1-Dioxido-2-(4-(Trifluoromethyl) Phenyl)-2,3,4,5-Tetrahydrobenzo[b][1,4,5]Oxathiazocin-9-yl)-4-Methyloxazole-5-Carboxamide] | 30 to 100 µM | > 200% | –
6 | O=C(Nc1ccc2c(c1)S(=O)(=O)N(c1ccc(C(F)(F)F)cc1)CCO2)c1cnc(-c2ccccc2)[nH]1 [Compound 2423] | < 20 µM | 129 to 149% | –
7 | Cn1c(C(=O)Nc2ccc3c(c2)S(=O)(=O)N(c2ccc(C(F)(F)F)cc2)CCO3)cccc1=O [Compound 2221] | 30 to 100 µM | 150 to 200% | –
8 | Cn1nncc1C(=O)Nc1ccc2c(c1)S(=O)(=O)N(c1ccc(C(F)(F)F)cc1)CCO2 [Compound 2226] | 30 to 100 µM | 150 to 200% | –
9 | COc1ncncc1C(=O)Nc1ccc2c(c1)S(=O)(=O)N(c1ccc(C(F)(F)F)cc1)CCO2 [Compound 2245] | 20 to 30 µM | 129 to 149% | –
10 | COc1cc(C(=O)Nc2ccc3c(c2)S(=O)(=O)N(c2ccc(C(F)(F)F)cc2)CCO3)n(C)n1 [Compound 2222] | < 20 µM | 150 to 200% | –
11 | Cc1ocnc1C(=O)Nc1ccc2c(c1)S(=O)(=O)N(c1ccccc1)CCO2 [Compound 2135, N-(1,1-dioxido-2-phenyl-3,4-dihydro-2H-benzo[b][1,4,5]oxathiazepin-8-yl)-5-methyloxazole-4-carboxamide] | 30 to 100 µM | 150 to 200% | –
12 | Cc1cc(C(=O)Nc2ccc3c(c2)S(=O)(=O)N(c2ccc(C(F)(F)F)cc2)CCO3)cc(C)n1 [Compound 2510] | 30 to 100 µM | 150 to 200% | –
13 | Cn1cnc(C(=O)Nc2ccc3c(c2)S(=O)(=O)N(c2ccc(C(F)(F)F)cc2)CCO3)c1 [Compound 2249] | 30 to 100 µM | 150 to 200% | –
14 | CC(C)c1ncsc1C(=O)Nc1ccc2c(c1)S(=O)(=O)N(c1ccc(C(F)(F)F)cc1)CCO2 [Compound 2080, N-(1,1-Dioxido-2-(4-(Trifluoromethyl)Phenyl)-3,4-Dihydro-2H-Benzo[b][1,4,5]Oxathiazepin-8-yl)-4-Isopropylthiazole-5-Carboxamide] | 20 to 30 µM | 129 to 149% | –
15 | Cc1ocnc1C(=O)Nc1ccc2c(c1)S(=O)(=O)N(c1ccc(F)cc1)CCO2 [Compound 2375, N-(2-(4-fluorophenyl)-1,1-dioxido-3,4-dihydro-2H-benzo[b][1,4,5]oxathiazepin-8-yl)-5-methyloxazole-4-carboxamide] | 30 to 100 µM | 150 to 200% | –
16 | Cn1cc(C(=O)Nc2ccc3c(c2)S(=O)(=O)N(c2ccc(C(F)(F)F)cc2)CCO3)cn1 [Compound 2241] | 20 to 30 µM | 150 to 200% | –
17 | Cc1cc(C(=O)Nc2ccc3c(c2)S(=O)(=O)N(c2ccc(C(F)(F)F)cc2)CCO3)cc(C)n1 [Compound 2173] | < 20 µM | – | B (150-200%, inclusive)
18 | Cc1ocnc1C(=O)N(C)c1ccc2c(c1)S(=O)(=O)N(c1ccc(C(F)(F)F)cc1)CCO2 [Compound 2449] | 30 to 100 µM | 150 to 200% | –

Results, then the compound that gave them:

Row | EC50 | Emax (maximal percent activation) | ADP GLO DRC: Mean Emax (maximal percent activation) | SMILES
19 | 30 to 100 µM | 150 to 200% | – | CN1CCCCC1C(=O)Nc1ccc2c(c1)S(=O)(=O)N(c1ccc(C(F)(F)F)cc1)CCO2 (stereo not shown) [Compound 2402]
20 | < 20 µM | 150 to 200% | – | Cn1ccc(C(=O)Nc2ccc3c(c2)S(=O)(=O)N(c2ccc(C(F)(F)F)cc2)CCO3)n1 [Compound 2294]
21 | 30 to 100 µM | 150 to 200% | – | CC(C)c1oncc1C(=O)Nc1ccc2c(c1)S(=O)(=O)N(c1ccc(C(F)(F)F)cc1)CCO2 [Compound 2202]
22 | 20 to 30 µM | 150 to 200% | – | O=C(Nc1ccc2c(c1)S(=O)(=O)N(c1ccc(C(F)(F)F)cc1)CCO2)c1ccncc1 [Compound 2234]
23 | < 20 µM | 129 to 149% | – | Cc1noc(C)c1C(=O)Nc1ccc2c(c1)S(=O)(=O)N(c1ccc(C(F)(F)F)cc1)CCO2 [Compound 2181]
24 | < 20 µM | 150 to 200% | – | Cc1ncoc1C(=O)Nc1ccc2c(c1)S(=O)(=O)N(c1ccc(C(F)(F)F)cc1)CCO2 [Compound 1190, N-(1,1-Dioxido-2-(4-(Trifluoromethyl)Phenyl)-3,4-Dihydro-2H-benzo[b][1,4,5]Oxathiazepin-8-yl)-4-Methyloxazole-5-Carboxamide]
25 | 30 to 100 µM | > 200% | – | Cn1c(C(=O)Nc2ccc3c(c2)S(=O)(=O)N(c2ccc(C(F)(F)F)cc2)CCO3)cnc1O [Compound 2351]
26 | 20 to 30 µM | 150 to 200% | – | O=C(Nc1ccc2c(c1)S(=O)(=O)N(c1ccc(C(F)(F)F)cc1)CCO2)c1cnc[nH]1 [Compound 2075, N-(1,1-Dioxido-2-(4-(Trifluoromethyl) Phenyl)-3,4-Dihydro-2H-Benzo [b] [1,4,5] Oxathiazepin-8-yl)-1H-Imidazole-5-Carboxamide]
27 | 30 to 100 µM | > 200% | – | O=C(Nc1ccc2c(c1)S(=O)(=O)N(c1ccc(C(F)(F)F)cc1)CCO2)c1ccc(O)nc1 [Compound 2299]
28 | 30 to 100 µM | 150 to 200% | – | CN1CCCC1C(=O)Nc1ccc2c(c1)S(=O)(=O)N(c1ccc(C(F)(F)F)cc1)CCO2 (stereo not shown) [Compound 2417]
29 | < 20 µM | 150 to 200% | – | CCc1ncccc1C(=O)Nc1ccc2c(c1)S(=O)(=O)N(c1ccc(C(F)(F)F)cc1)CCO2 [Compound 2344]
